The numbers were not newly measured in patent US6495121B2, “Chewing gum containing dipetide sweetener with lengthened and improved flavor” (Holland Sweetner Company V.O.F., priority 1996, dated 2002), which cites them from elsewhere.

Each structure is given as a SMILES string. Where a SMILES comes first, the peptide text is derived from it.

For the series the following is noted: relative to sucrose.

As to `C[C@@H](NC(=O)[C@@H](N)CC(=O)O)C(=O)NC1C(C)(C)SC1(C)C.O` [Alitame, L-α-aspartyl-n-(2,2,4,4-tetramethyl-3-thietanyl)-D-alanineamidehydrate], the sweetening power entry is recorded as “approximately 2000 × that of sucrose”.
For the compound `COC(=O)[C@H](Cc1ccccc1)NC(=O)[C@@H](N)CC(=O)O` [Aspartame, α-L-aspartyl-L-phenylalaninemethylester] (H-Asp-Phe-OMe), the sweetening power entry is on record as “approximately 200 × that of sucrose”.
